In US20230330093A1, “APPLICATION OF NITROGEN-CONTAINING SATURATED HETEROCYCLIC COMPOUND” (SHANGHAI PHARMACEUTICALS HOLDING CO., LTD., priority 2020, published 2023):
Where “and” joins values, the source holds several entries; their conditions need not be identical. Identical values can stand only once.

How the values were obtained:
Format in all cases: in vivo, Macaca mulatta (Rhesus Macaque)
[1] = system: rhesus monkeys with spontaneous chronic kidney disease; assay: Effect on plasma creatinine Cr-P, 8-week administration; details: 5 mg/kg (n = 6)
Protocol: (§1) In the trial, animals were brought in three stages. […] Glomerular filtration rate […]: creatinine (Cr-P), urea nitrogen (BUN) and cystatin (CysC) were detected, and the eGFR value was obtained by calculation. It was performed once before the administration and once every two weeks after the administration. […] ELISA kit was used for NT-proBNP test. [table]

[2] = system: rhesus monkeys with spontaneous chronic kidney disease (CKD); assay: Effect on UACR (proteinuria), 8-week oral administration; details: for MALB / UACR: per animal + Mean ± SD; for UACR change rate: 8 weeks vs baseline, negative = decrease; for UACR Benefit assessment: per animal
Protocol: CKD-EPI rating […]-G3b, glomerular filtration rate eGFR: 30 59 ml/min/1.73 m^2; or moderate to severe increase in proteinuria (A2-A3): urine albumin/creatinine ratio (UACR)>15 mg/g-350 mg/g (4-6 hour urine collection), vs. age-matched control group 3±2 mg/g. In the trial, animals were brought in three stages. […] ELISA kit was used for NT-proBNP test. [table]

[3] = system: rhesus monkeys with spontaneous chronic kidney disease; assay: Effect on BUN, 8-week administration
Protocol: as §1

[4] = system: rhesus monkeys with spontaneous chronic kidney disease; assay: Effect on NT-proBNP (ELISA), 8-week administration
From the text: In the trial, animals were brought in three stages. […] ELISA kit was used for NT-proBNP test. [table]

[5] = 1 mg/kg oral once a day, 4 weeks
[6] = 1 mg/kg oral once a day, 4 weeks, mean
[7] = 1 mg/kg oral once a day, 8 weeks
[8] = 1 mg/kg oral once a day, 8 weeks, mean
[9] = 1 mg/kg oral once a day, Baseline
[10] = 1 mg/kg oral once a day, Baseline, mean
[11] = 2 mg/kg oral once a day, 4 weeks
[12] = 2 mg/kg oral once a day, 4 weeks, mean
[13] = 2 mg/kg oral once a day, 8 weeks
[14] = 2 mg/kg oral once a day, 8 weeks, mean
[15] = 2 mg/kg oral once a day, Baseline
[16] = 2 mg/kg oral once a day, Baseline, mean
[17] = 5 mg/kg oral once a day, 8 weeks
[18] = 5 mg/kg oral once a day, 8 weeks, mean
[19] = 5 mg/kg oral once a day, Baseline
[20] = 5 mg/kg oral once a day, Baseline, mean

In the case of COC(=O)NCCCn1nc([C@@H](C)N(C(=O)[C@H]2CNCCO2)C2CC2)c2ccc(C)nc21.O=C(O)C[C@H](O)C(=O)O [malate of compound of Formula I], the Cr-P ([1]; 2 weeks, mean) is reported as 1.07 ± 0.19 mg/dL, the Cr-P ([1]; 4 weeks) is reported as 0.85 mg/dL and 1.26 mg/dL and 0.89 mg/dL and 1.15 mg/dL and 1.13 mg/dL and 1.33 mg/dL and the Cr-P ([1]; 4 weeks, mean) is reported as 1.10 ± 0.19 mg/dL. For the same compound, the Cr-P ([1]; 6 weeks) was 0.87 mg/dL and 1.42 mg/dL and 1.02 mg/dL and 1.06 mg/dL and 1.12 mg/dL and 1.32 mg/dL, the Cr-P ([1]; 6 weeks, mean) was 1.14 ± 0.20 mg/dL and the Cr-P ([1]; 8 weeks) was 0.85 mg/dL and 1.22 mg/dL and 0.95 mg/dL and 1.04 mg/dL and 1.11 mg/dL and 1.18 mg/dL. For the same compound, the Cr-P ([1]; 8 weeks, mean) was 1.06 ± 0.14 mg/dL, the Cr-P ([1]; Baseline, single animals and Mean ± SD) was 0.90 mg/dL and 1.53 mg/dL and 1.10 mg/dL and 0.99 mg/dL and 1.43 mg/dL and 1.79 mg/dL and the Cr-P ([1]; Baseline, single animals and Mean ± SD, mean) was 1.29 ± 0.35 mg/dL. For the same compound, the MALB [2, 5] was 4.6 mg/L and 34.1 mg/L and 1.4 mg/L and 5.1 mg/L and 1.3 mg/L, the UACR [2, 5] was 15.0 mg/g and 28.1 mg/g and 7.2 mg/g and 4.7 mg/g and 8.1 mg/g and the MALB [2, 6] was 9.3 ± 14.0 mg/L. For the same compound, the UACR [2, 6] was 12.6 mg/g, the “UACR change rate” value ([2]; 1 mg/kg oral once a day, per animal + Mean ± SD (2/5 animals in statistics)) was −39.14% and 8.44% and the “UACR change rate” value ([2]; 1 mg/kg oral once a day, per animal + Mean ± SD (2/5 animals in statistics), mean) was −15.35%. The “UACR Benefit assessment” value [2, 7] was “Benefit and No”, the MALB [2, 7] was 5.2 mg/L and 38.4 mg/L and 0.8 mg/L and 7.6 mg/L and 1.1 mg/L and the UACR [2, 7] was 20.0 mg/g and 32.5 mg/g and 3.1 mg/g and 2.6 mg/g and 6.1 mg/g. For the same compound, the MALB [2, 8] was 10.6 ± 15.8 mg/L, the UACR [2, 8] was 12.9 ± 13.0 mg/g and the “UACR Benefit assessment” value ([2]; 1 mg/kg oral once a day, 8 weeks, listed as malate of compound of formula I) was “The benefit was not obvious in one case”. The MALB [2, 9] was 9.5 mg/L and 26.8 mg/L and 0.6 mg/L and 0.9 mg/L (2×), the UACR [2, 9] was 32.8 mg/g and 30.0 mg/g and 2.9 mg/g and 1.6 mg/g and 4.1 mg/g and the MALB [2, 10] was 7.7 ± 11.3 mg/L. For the same compound, the UACR [2, 10] was 14.3 mg/g, the “UACR of W8 decreased by, compared with the baseline” value ([2]; 1 mg/kg qd, one animal) was 39% and the MALB [2, 11] was 1.0 mg/L and 12.5 mg/L and 5.3 mg/L and 103.7 mg/L and 2.4 mg/L. For the same compound, the UACR [2, 11] was 3.1 mg/g and 7.9 mg/g and 12.7 mg/g and 92.9 mg/g and 3.6 mg/g, the MALB [2, 12] was 25.0 ± 44.2 mg/L and the UACR [2, 12] was 24.0 mg/g. The “UACR change rate” value ([2]; 2 mg/kg oral once a day, per animal + Mean ± SD (3/5 animals in statistics, p < 0.01 vs placebo)) was −85.13% and −51.06% and −61.81%, the “UACR change rate” value ([2]; 2 mg/kg oral once a day, per animal + Mean ± SD (3/5 animals in statistics, p < 0.01 vs placebo), mean) was −66.00% and the “UACR Benefit assessment” value [2, 13] was “Benefit”. For the same compound, the MALB [2, 13] was 3.0 mg/L and 0.4 mg/L and 0.6 mg/L and 69.5 mg/L and 3.6 mg/L, the UACR [2, 13] was 5.6 mg/g and 1.2 mg/g and 2.3 mg/g and 59.8 mg/g and 11.2 mg/g and the MALB [2, 14] was 15.4 ± 30.3 mg/L. The UACR [2, 14] was 16.0 ± 24.8 mg/g, the “UACR Benefit assessment” value ([2]; 2 mg/kg oral once a day, 8 weeks, listed as malate of compound of formula I) was “all showed benefits” and the MALB [2, 15] was 1.2 mg/L and 0.6 mg/L and 5.3 mg/L and 145.4 mg/L and 6.8 mg/L. For the same compound, the UACR [2, 15] was 3.5 mg/g and 2.5 mg/g and 15.3 mg/g and 122.1 mg/g and 29.3 mg/g, the MALB [2, 16] was 31.9 ± 63.5 mg/L and the UACR [2, 16] was 34.5 mg/g. The “W8 UACR decreased by on average, compared with the baseline” value ([2]; 2 mg/kg qd, 3/5 animals with moderate to severe proteinuria, p<0.01 vs placebo) was 66.00±17.42%, the “UACR of W8 decreased by, compared with the baseline” value ([2]; 2 mg/kg qd, three animals) was 50%-80% and the UACR change rate ([2]; 5 mg/kg oral once a day, per animal + Mean ± SD (4/6 animals in statistics, p < 0.05 vs placebo)) was 16.75% and −64.10% and −68.62% and −72.14%. The UACR change rate ([2]; 5 mg/kg oral once a day, per animal + Mean ± SD (4/6 animals in statistics, p < 0.05 vs placebo), mean) was −46.87 ± 36.93 %, the “UACR Benefit assessment” value [2, 17] was “all showed benefits and One animal showed no benefit and No and Benefit” and the MALB [2, 17] was 72.4 mg/L and 1.2 mg/L and 3.4 mg/L and 112.3 mg/L and 0.3 mg/L and 21.6 mg/L. For the same compound, the UACR [2, 17] was 138.4 mg/g and 5.7 mg/g and 9.1 mg/g and 87.7 mg/g and 1.8 mg/g and 35.1 mg/g, the MALB [2, 18] was 35.2 ± 46.7 mg/L and the UACR [2, 18] was 46.3 ± 55.4 mg/g. For the same compound, the MALB [2, 19] was 93.2 mg/L and 4.3 mg/L and 46.5 mg/L and 59.3 mg/L and 2.1 mg/L and 26.0 mg/L, the UACR [2, 19] was 118.5 mg/g and 10.5 mg/g and 25.4 mg/g and 279.3 mg/g and 2.4 mg/g and 125.8 mg/g and the MALB [2, 20] was 38.6 ± 35.0 mg/L. The UACR [2, 20] was 93.7 ± 105.9 mg/g, the “UACR of W8 decreased by, compared with the baseline” value ([2]; 5 mg/kg qd, 3 animals) was 60%-70% and the “W8 UACR decreased by on average, compared with the baseline” value ([2]; 5 mg/kg qd, 4/6 animals with moderate-to-severe proteinuria, p<0.05 vs placebo) was 46.87±36.93%. The “effect on UACR and eGFRcreat-cys compared with Valsartan” value ([2]; 2-5 mg/kg qd for 8 weeks) was “equivalent to the Valsartan group”, the “proteinuria (UACR) improvement” value ([2]; 2-5 mg/kg qd for 8 weeks) was “can be significantly improved” and the BUN ([3]; 1 mg/kg (n = 5), Baseline2, single animals and Mean ± SD) was 35.1 mg/dL and 32.4 mg/dL and 19.3 mg/dL and 39.8 mg/dL and 40.8 mg/dL. The BUN ([3]; 1 mg/kg (n = 5), Baseline2, single animals and Mean ± SD, mean) was 33.5 ± 8.6 mg/dL, the BUN ([3]; 2 mg/kg (n = 5), 4 weeks) was 42.7 mg/dL and 37.1 mg/dL and 22.9 mg/dL and 41.6 mg/dL and 30.4 mg/dL and the BUN ([3]; 2 mg/kg (n = 5), 4 weeks, mean) was 34.9 ± 8.3 mg/dL. The BUN ([3]; 2 mg/kg (n = 5), Baseline2, single animals and Mean ± SD) was 37.5 mg/dL and 24.2 mg/dL and 18.7 mg/dL and 42.1 mg/dL and 25.4 mg/dL, the BUN ([3]; 2 mg/kg (n = 5), Baseline2, single animals and Mean ± SD, mean) was 29.6 ± 9.8 mg/dL and the BUN ([3]; 5 mg/kg (n = 6), Baseline2, single animals and Mean ± SD) was 18.6 mg/dL and 37.3 mg/dL and 41.3 mg/dL and 77.3 mg/dL and 18.1 mg/dL and 81.2 mg/dL. The BUN ([3]; 5 mg/kg (n = 6), Baseline2, single animals and Mean ± SD, mean) was 45.6 ± 27.7 mg/dL, the NT-proBNP ([4]; 1 mg/kg (n = 5), Baseline, single animals and Mean ± SD) was 88 pg/mL and 299 pg/mL and 127 pg/mL and 203 pg/mL and 44 pg/mL and the NT-proBNP ([4]; 1 mg/kg (n = 5), Baseline, single animals and Mean ± SD, mean) was 152 ± 101 pg/mL. For the same compound, the NT-proBNP ([4]; 2 mg/kg (n = 5), Baseline, single animals and Mean ± SD) was 43 pg/mL and 155 pg/mL and 335 pg/mL and 46 pg/mL and 250 pg/mL, the NT-proBNP ([4]; 2 mg/kg (n = 5), Baseline, single animals and Mean ± SD, mean) was 166 ± 127 pg/mL and the NT-proBNP ([4]; 5 mg/kg (n = 6), 8 weeks) was 261 pg/mL and 146 pg/mL and 250 pg/mL and 197 pg/mL and 180 pg/mL. For the same compound, the NT-proBNP ([4]; 5 mg/kg (n = 6), 8 weeks, mean) was 231 ± 73 pg/mL, the NT-proBNP ([4]; 5 mg/kg (n = 6), Baseline, single animals and Mean ± SD) was 312 pg/mL and 88 pg/mL and 211 pg/mL and 432 pg/mL and 177 pg/mL and 162 pg/mL and the NT-proBNP ([4]; 5 mg/kg (n = 6), Baseline, single animals and Mean ± SD, mean) was 230 ± 123 pg/mL.
